According to paper PMC11855827, “High-Throughput Screening of Five Compound Libraries for Anthelmintic Activity and Toxicity Leads to the Discovery of Two Flavonoid Compounds” (International Journal of Molecular Sciences, 2025):
Read-outs that look alike come from different tables or passages of the source.

System: C. elegans
Assay: microbe, parasite or virus in culture
Settings: Caenorhabditis elegans
[1] = 0 h, read-out: Percentage of motility inhibition 0 h, Table S2, C. elegans SS assay, 110 μM, 0 h, averages of 4 data points
[2] = 24 h, read-out: Percentage of motility inhibition 24 h, Table S2, C. elegans SS assay, 110 μM, 24 h, averages of 4 data points
[3] = 0 h, read-out: Percentage of motility inhibition 0 h
[4] = 24 h, read-out: Percentage of motility inhibition 24 h

Row | SMILES | inhibition at 110 µM [1] [%] | inhibition at 110 µM [2] [%] | inhibition at 110 µM [3] [%] | inhibition at 110 µM [4] [%]
1 | C[C@H](CC[C@@H](O)C(C)(C)O)[C@H]1CC[C@@]2(C)[C@@H]3CC=C4[C@@H](CC[C@H](O)C4(C)C)[C@]3(C)C(=O)C[C@]12C [Bryodulcosigenin] | 16 | 15 |  | 
2 | CC(C)(C)[C@H]1CC[C@H](CC2=C(O)C(=O)c3ccccc3C2=O)CC1 [Buparvaquone] | 6 | 12 |  | 
3 | CO[C@H]1C(=O)[C@]2(C)[C@@H](OC)C[C@H]3OC[C@@]3(OC(C)=O)[C@H]2[C@H](OC(=O)c2ccccc2)[C@]2(O)C[C@H](OC(=O)[C@H](O)[C@@H](NC(=O)OC(C)(C)C)c3ccccc3)C(C)=C1C2(C)C [Cabazitaxel] | 3 | 9 |  | 
4 | C[C@H]1CO[C@@H]2Cn3cc(C(=O)NCc4ccc(F)cc4F)c(=O)c(O)c3C(=O)N12 [Cabotegravir] | 19 | 7 |  | 
5 | O=C(O)c1cn(C2CC2)c2cc(N3CCC(O)(COc4ccc(N5C[C@H](CO)OC5=O)cc4F)CC3)c(F)cc2c1=O [Cadazolid] | 5 | 31 |  | 
6 | O=C(O)/C=C/c1ccc(O)c(O)c1 [Caffeic acid] | 20 | 13 |  | 
7 | COc1ccc(-c2coc3cc(O)ccc3c2=O)cc1O [Calycosin] |  |  | 16 | 1
8 | C[C@@H]1O[C@@H](OC[C@H]2O[C@@H](Oc3c(-c4ccc(O)cc4)oc4cc(O)cc(O)c4c3=O)[C@H](O[C@@H]3O[C@H](CO)[C@H](O)[C@H](O)[C@H]3O)[C@@H](O)[C@@H]2O)[C@H](O)[C@H](O)[C@H]1O [Camelliaside A] | 9 | 10 |  | 
9 | O=c1ccc2nccc3c4ccccc4n1c23 [Canthin‐6‐one] | 0 | 15 |  | 
10 | COc1cc(CNC(=O)CCCC/C=C/C(C)C)ccc1O [Capsaicin] |  |  | 0 | 0
11 | COC(=O)N/N=C/c1c[n+]([O-])c2ccccc2[n+]1[O-] [Carbadox] | 4 | 0 |  | 
12 | COC(=O)Nc1nc2ccccc2[nH]1 [Carbendazim] | 18 | 7 |  | 
13 | O[C@H]1[C@H](O)[C@@H](O)CN2CC[C@H](O)[C@H]12 [Castanospermine] | 0 | 0 |  | 
14 | COc1ccc(-c2oc3cc(OC)c(OC)c(O)c3c(=O)c2OC)cc1O [Casticin] |  |  | 9 | 0
15 | OC[C@H]1O[C@@H](O[C@@H]2OC=C[C@H]3[C@H](O)[C@@H]4O[C@]4(CO)[C@@H]23)[C@H](O)[C@@H](O)[C@@H]1O [Catalpol] | 0 | 16 |  | 
16 | C[C@@H]1O[C@@H](O[C@H]2[C@H](O)[C@@H](O)[C@H](OC[C@H]3O[C@@H](OC(=O)[C@]45CCC(C)(C)C[C@H]4C4=CC[C@@H]6[C@@]7(C)CC[C@H](O[C@@H]8OC[C@H](O)[C@H](O)[C@H]8O)[C@@](C)(CO)[C@@H]7CC[C@@]6(C)[C@]4(C)CC5)[C@H](O)[C@@H](O)[C@@H]3O)O[C@@H]2CO)[C@H](O)[C@H](O)[C@H]1O [Cauloside D] | 6 | 17 |  | 
17 | C[C@@H]1CC[C@H]2C(C)(C)[C@H]3C[C@@]12CC[C@@]3(C)O [Cedrol] | 8 | 13 |  | 
18 | C=CC1=C(C(=O)O)N2C(=O)[C@@H](NC(=O)/C(=N\O)c3csc(N)n3)[C@H]2SC1 [Cefdinir] | 0 | 0 |  | 
19 | C=CC1=C(C(=O)O)N2C(=O)[C@@H](NC(=O)/C(=N\OCC(=O)O)c3csc(N)n3)[C@H]2SC1 [Cefixime] | 38 | 12 |  | 
20 | CCN1CCN(C(=O)N[C@@H](C(=O)N[C@@H]2C(=O)N3C(C(=O)O)=C(CSc4nnnn4C)CS[C@H]23)c2ccc(O)cc2)C(=O)C1=O [Cefoperazone] | 22 | 7 |  | 
21 | CC1=C(C(=O)O)N2C(=O)[C@@H](NC(=O)[C@H](N)C3=CCC=CC3)[C@H]2SC1 [Cefradine] | 37 | 11 |  | 
